The text below walks through data of patent US8809386B2, “Use of dynamin ring stabilizers” (Children's Medical Research Institute, priority 2009, dated 2014).

The structures appear in SMILES notation.

Assay [1] concerns truncated dynamin I construct known as GG2. Kind of assay: Basal GTPase activity of assembly-incompetent dynamin construct GG2. The format is biochemical. Particulars: FIG. 5. From the text: FIG. 5 is a graph showing the basal GTPase activity of the truncated dynamin I construct known as GG2, containing only the GTPase domain linked to a small part of the GED domain (Chappie et al 2009). Unlike full length dynamin this construct is known to be unable to self-assemble or to form rings. Bis-T-22 and -23 and imminodyn-22 have no effect on the basal activity of this assembly-incompetent construct.
To verify that ring stabilizers require dynamin oligomerisation, a recombinant form of dynamin, called GG-2, which is dimeric yet is unable to self-associate into higher order oligomers (Chappie et al 2009) was tested. Ring stabilizers are unable to stimulate the basal activity of such constructs (FIG. 5).

The subject of the next assay is dynamin I. The assay can be described thus: Dynamin self-assembly assay, high speed centrifugation at decreasing NaCl. It is filed as biochemical. As to conditions: dynamin 520 nM. Here is the method: This dynamin self-assembly assay was performed with native dynamin ([…]) using the Hepes column buffer described above in Example 1.1, (with the addition of 1% DMSO as described above). Bis-T effects were measured by pre-incubating the dynamin with the indicated Bis-T concentrations for 10 min at room temperature (22° C.). NaCl concentrations were varied from a stock in 200 mM NaCl. After the incubation the tubes were transferred to a TLA120.2 rotor (Beckman) and centrifuged in a tabletop ultracentrifuge (Optima TLX, Beckman) at 100,000 g for 20 min, and the supernatants (S) and pellets (P) were collected, precipitated with trichloracetic acid, solubilised in SDS sample buffer and separated on SDS gels.
A block in ring disassembly should be manifested as an accumulation of rings in vitro. Dynamin self-assembles into rings in the absence of any cofactors when the buffer ionic strength is decreased (Song et al. 2004). To determine whether Bis-T compounds regulate dynamin-dynamin interactions a well-established method of high speed centrifugation in decreasing amounts of NaCl to collect rings in the pellet (Warnock et al. 1996) was used. Higher concentrations of dynamin (520 nM) and dynamin was visualized by Coomassie staining on SDS gels (FIG. 6). As reported by others, dynamin is in the supernatant at ≧40 mM NaCl, but self-assembled at ≦20 mM NaCl and is found in the pellet. […]

In assay [2] the test system is Human lymphoblasts (which express dynamin II). The assay can be described thus: EM analysis of clathrin coated pits in human lymphoblasts. Particulars: 30 min (Bis-T-22 100 μM), FIG. 10A. It is filed as cell-based. The text has this:
When vesicles are endocytosed via the clathrin-dependent pathway, they are well known to be internalised as omega shaped figures close to the plasma membrane with partially constricted and short necks. These can be detected by transmission electron microscopy (EM) at a low frequency.

In the next assay the test system is rat brain synaptosomes. The assay can be described thus: EM analysis of endocytic pits in KCl-depolarised rat brain synaptosomes. It is filed as cell-based. Particulars: 30 min (100 μM), depolarised with KCl, FIG. 10B. The text has this: When vesicles are endocytosed via the clathrin-dependent pathway, they are well known to be internalised as omega shaped figures close to the plasma membrane with partially constricted and short necks. These can be detected by transmission electron microscopy (EM) at a low frequency. […] In contrast to these observations, a dynamin ring stabilizer causes accumulation of clathrin coated pits in cells with two distinctive features: the vesicle necks are highly elongated and are encircled by electron dense rings. […] No rings or trapped vesicles were detected when the synaptosomes were unstimulated (FIG. 10B top). This mimics the in vitro observations on purified dynamin I described earlier which forms single rings (FIG. 9).

Another assay addresses T1, full length dynamin I (UniProt Q05193).
T1 construct: rows headed: basal rate of GTP hydrolysis of dynamin
T1 sequence (Q05193 1-864): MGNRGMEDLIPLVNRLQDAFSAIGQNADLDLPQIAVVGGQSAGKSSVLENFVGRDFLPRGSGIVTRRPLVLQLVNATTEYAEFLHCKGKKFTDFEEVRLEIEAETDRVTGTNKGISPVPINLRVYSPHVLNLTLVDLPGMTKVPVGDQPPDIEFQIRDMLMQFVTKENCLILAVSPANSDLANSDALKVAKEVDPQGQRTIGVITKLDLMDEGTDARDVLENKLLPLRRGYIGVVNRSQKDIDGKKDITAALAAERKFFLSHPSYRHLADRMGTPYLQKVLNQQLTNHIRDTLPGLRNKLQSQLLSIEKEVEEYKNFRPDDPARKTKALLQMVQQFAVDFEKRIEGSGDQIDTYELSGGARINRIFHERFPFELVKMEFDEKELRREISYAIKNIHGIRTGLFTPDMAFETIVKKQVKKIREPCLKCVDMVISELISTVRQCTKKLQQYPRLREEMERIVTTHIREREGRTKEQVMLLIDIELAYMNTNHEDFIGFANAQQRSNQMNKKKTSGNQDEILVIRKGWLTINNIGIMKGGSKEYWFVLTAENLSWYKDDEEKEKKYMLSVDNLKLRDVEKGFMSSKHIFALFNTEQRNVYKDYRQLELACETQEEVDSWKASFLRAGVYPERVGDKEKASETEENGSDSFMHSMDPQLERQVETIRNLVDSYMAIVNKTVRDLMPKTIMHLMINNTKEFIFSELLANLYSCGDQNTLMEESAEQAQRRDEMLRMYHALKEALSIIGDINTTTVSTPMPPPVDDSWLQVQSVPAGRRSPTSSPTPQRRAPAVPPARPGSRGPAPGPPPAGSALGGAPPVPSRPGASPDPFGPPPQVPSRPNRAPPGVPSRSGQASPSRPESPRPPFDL
Kind of assay: Basal dynamin GTPase activity in the absence of PS liposomes or other template (ring stabilizer activity). It is filed as biochemical, sheep. Particulars: 0.2 μM dyn1, 7 μM compound, 10 μM Gsn-F-actin complexes, FIG. 18.

For the compound `N#C/C(=C\c1ccc(O)c(O)c1)C(=O)NCCCNC(=O)/C(C#N)=C/c1ccc(O)c(O)c1` [Bis-T-22, 2-cyano-N-{3-[2-cyano-3-(3,4-dihydroxyphenyl)-acryloylamino]-propyl}-3-(3,4-dihydroxyphenyl)-acrylamide], in assay [1], the “effect on basal GTPase activity of GG2” value is listed as “no effect”. In addition, the “dynamin ring assembly (dynamin in pellet)” value with dynamin I (100 μM, intermediate salt concentrations) is “increased ring assembly”; with dynamin I (300 μM, fixed 40 mM NaCl) it was “promoted all dynamin to form rings”. In assay [2], the “clathrin coated pits by EM” value is “massive accumulation in all cells of clathrin coated pits with highly elongated necks”. For the same compound, the “trapped endocytic pits by EM” value in the assay with rat brain synaptosomes is recorded as “trapped endocytic pits were detected that were encircled by a single electron dense ring”. In addition, on full length dynamin I, the “basal rate of GTP hydrolysis of dynamin” value was “stimulates dynamin's basal rate of GTP hydrolysis”.
